One assay has as its target T1, PASK (UniProt #Q96RG2; human recombinant N-terminal GST tagged construct, residues 879-1323) (Homo sapiens, UniProt Q96RG2).
T1 construct: N-terminal GST tagged construct, residues 879-1323; GST (N); host or cells: insect cells
As to the kind of experiment: PASK ATP Radiochemical Assay. The assay is classed as biochemical. To be noted: 33P-ATP, Myelin Basic Protein substrate, read-out: IC50 Kinase Domain. The method, then:
Biochemical Assay for hPASK Activity
PASK ATP Radiochemical Assay
(§1) Purified PASK (UniProt #Q96RG2; human recombinant N-terminal GST tagged construct, residues 879-1323) from insect cells (final concentration 5 nM) is added to freshly prepared Base Reaction Buffer containing 20 mM HEPES (pH 7.5), 10 mM MgCl2, 1 mM EGTA, 0.02% Brij35, 0.02 mg/ml BSA, 0.1 mM Na3VO4, 2 mM DTT, 1% DMSO and Myelin Basic Protein (20 μM final). Test compounds in DMSO are then added and the mixture, followed by delivery of ^33P-ATP (specific activity 0.01 μCi/μl final) to initiate the reaction. The kinase reaction is incubated for 120 min at room temperature. The entire reaction mixture is washed through onto a P81 Phosphocellulose paper and washed three times for 10 minutes in 75 mM phosphoric acid and once in methanol prior to drying and scintillation counting.

The target in assay [1] is T2, CK2a2 (NP_001887; human full-length protein, GST tagged) (Homo sapiens, UniProt P19784).
T2 construct: human full-length protein, GST tagged; GST; host or cells: insect cells
T2 sequence (P19784 whole entry): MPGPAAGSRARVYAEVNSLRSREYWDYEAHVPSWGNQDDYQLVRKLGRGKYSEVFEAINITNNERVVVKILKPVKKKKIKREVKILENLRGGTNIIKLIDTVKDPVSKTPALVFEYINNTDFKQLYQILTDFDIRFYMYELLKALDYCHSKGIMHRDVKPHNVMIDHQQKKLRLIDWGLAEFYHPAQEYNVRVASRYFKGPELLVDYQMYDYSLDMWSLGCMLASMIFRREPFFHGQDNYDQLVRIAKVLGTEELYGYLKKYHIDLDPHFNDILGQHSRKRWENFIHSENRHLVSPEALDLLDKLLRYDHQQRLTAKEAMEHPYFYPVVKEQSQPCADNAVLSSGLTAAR
As to the kind of experiment: Biochemical Assay for CK2 Activity. To be noted: 33P-ATP radiochemical assay, CK2 sub [RRRDDDSDDD]. On the procedure: Biochemical Assay for CK2 Activity
as §1, with “Purified CK2a2 (NP_001887;” for “Purified PASK (UniProt #Q96RG2;”, “human full-length protein,” for “human recombinant N-terminal”, “GST tagged)” for “GST tagged construct, residues 879-1323)”, “concentration 1.2” for “concentration 5”, “mM Hepes” for “mM HEPES”, “and CK2 sub [RRRDDDSDDD]” for “and Myelin Basic Protein”

The target of the next assay is T3, PASK (Invitrogen) (Homo sapiens, UniProt Q96RG2).
T3 construct: IC50 Kinase Domain; purchased Invitrogen
T3 sequence (Q96RG2 999-1251 limits assumed): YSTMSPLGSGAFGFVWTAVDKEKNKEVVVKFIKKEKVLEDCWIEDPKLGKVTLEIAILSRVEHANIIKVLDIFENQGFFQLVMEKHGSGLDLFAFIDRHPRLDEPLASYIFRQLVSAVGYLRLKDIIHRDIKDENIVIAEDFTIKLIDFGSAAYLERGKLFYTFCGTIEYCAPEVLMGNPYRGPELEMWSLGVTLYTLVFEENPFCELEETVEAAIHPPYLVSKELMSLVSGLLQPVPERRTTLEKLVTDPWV
Nature of the assay: PAS Kinase FRET Assay. The assay is classed as biochemical. The conditions noted are these: PAS kinase TR-FRET assay (665 nm/615 nm); read-out: IC50 Kinase Domain. The gist of the method: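 PASK phosphorylates a ULight-peptide with ATP in 50 mM HEPES, 10 mM MgCl2, 1 mM EGTA, 0.01% Tween-20, 2 mM DTT for 2 h at 25° C in the dark. Compounds are added as 4× serial dilutions (top 12×10^−5 M at 4×). After stopping, an Eu anti-phospho-substrate antibody is added for 1 h and TR-FRET is read at 665/615 nm.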
For orientation: Time-resolved FRET reads energy transfer from a long-lived donor to a nearby acceptor.

Assay [2] deals with T4, PIM1 (NP_002639; human full-length protein, 6×His tagged) (Homo sapiens, UniProt P11309).
T4 construct: human full-length protein, 6×His tagged; 6xHis; host or cells: insect cells
T4 sequence (P11309 whole entry): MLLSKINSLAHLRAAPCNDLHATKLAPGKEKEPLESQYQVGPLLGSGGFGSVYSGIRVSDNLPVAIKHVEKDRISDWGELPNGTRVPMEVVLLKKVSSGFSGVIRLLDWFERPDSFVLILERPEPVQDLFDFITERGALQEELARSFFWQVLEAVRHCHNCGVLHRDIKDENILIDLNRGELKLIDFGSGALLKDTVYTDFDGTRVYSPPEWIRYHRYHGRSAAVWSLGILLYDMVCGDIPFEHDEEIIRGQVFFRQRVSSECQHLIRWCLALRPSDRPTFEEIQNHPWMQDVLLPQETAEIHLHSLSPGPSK
Nature of the assay: Biochemical Assay for PIM1 Activity. The conditions noted are these: 33P-ATP radiochemical assay, S6K/Rsk2 peptide 2 substrate. On the procedure:
Biochemical Assay for PIM1 Activity
as §1, with “Purified PIM1 (NP_002639;” for “Purified PASK (UniProt #Q96RG2;”, “human full-length protein, 6×His tagged)” for “human recombinant N-terminal GST tagged construct, residues 879-1323)”, “concentration 1.0” for “concentration 5”, “mM Hepes” for “mM HEPES”, “and substrate S6K/Rsk2 peptide 2 [KKRNRTLTK]” for “and Myelin Basic Protein”, “activity 10” for “activity 0.01”

T1 sequence (Q96RG2 879-1323, stated change not applied): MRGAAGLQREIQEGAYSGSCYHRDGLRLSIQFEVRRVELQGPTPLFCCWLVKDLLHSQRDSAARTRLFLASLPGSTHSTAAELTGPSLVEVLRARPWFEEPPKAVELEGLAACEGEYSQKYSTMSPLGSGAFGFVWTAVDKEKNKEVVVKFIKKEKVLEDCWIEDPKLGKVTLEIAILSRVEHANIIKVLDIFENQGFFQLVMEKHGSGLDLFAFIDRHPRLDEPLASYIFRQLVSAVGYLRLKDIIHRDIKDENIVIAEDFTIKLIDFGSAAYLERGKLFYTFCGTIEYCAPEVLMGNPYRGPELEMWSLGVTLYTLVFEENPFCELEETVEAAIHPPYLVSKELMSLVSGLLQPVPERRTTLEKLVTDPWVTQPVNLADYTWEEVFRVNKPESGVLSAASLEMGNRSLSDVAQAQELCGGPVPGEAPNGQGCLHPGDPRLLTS

On to `Cc1cnc(-c2cnn3c(=O)cc(-c4ccc5c(c4)OCO5)[nH]c23)o1` [Example 3, 5-(2H-1,3-benzodioxol-5-yl)-3-(5-methyl-1,3-oxazol-2-yl)-4H,7H-pyrazolo[1,5-a]pyrimidin-7-one], for which the IC50 (at PASK; in assay [1]; at PASK (Invitrogen); in assay [2]) was not above 10 µM each time.
As to `Cc1coc(-c2cnn3c(=O)cc(-c4ccc5c(c4)OCO5)[nH]c23)n1` [Example 4, 5-(2H-1,3-benzodioxol-5-yl)-3-(4-methyl-1,3-oxazol-2-yl)-4H,7H-pyrazolo[1,5-a]pyrimidin-7-one], the IC50 (on PASK; in assay [1]; at PASK (Invitrogen); in assay [2]) was not above 10 µM throughout.
For `Cc1cnc(-c2cnn3c(=O)cc(-c4ccc5[nH]nnc5c4)[nH]c23)o1` [Example 5, 5-(1H-1,2,3-benzotriazol-5-yl)-3-(5-methyl-1,3-oxazol-2-yl)-4H,7H-pyrazolo[1,5-a]pyrimidin-7-one], the IC50 (at PASK; in assay [1]; at PASK (Invitrogen); in assay [2]) was not above 10 µM in each case.
For `CCn1ncc2cc(-c3cc(=O)n4ncc(-c5nc(C)co5)c4[nH]3)ccc21` [Example 13, 5-(1-Ethyl-1H-indazol-5-yl)-3-(4-methyl-1,3-oxazol-2-yl)-4H,7H-pyrazolo[1,5-a]pyrimidin-7-one], the IC50 (on PASK; in assay [1]; on PASK (Invitrogen); in assay [2]) was not above 10 µM throughout.
As to `CCc1coc(-c2cnn3c(=O)cc(-c4ccc5[nH]nnc5c4)[nH]c23)n1` [Example 15, 5-(1H-1,2,3-benzotriazol-5-yl)-3-(4-ethyl-1,3-oxazol-2-yl)-4H,7H-pyrazolo[1,5-a]pyrimidin-7-one], the IC50 (on PASK; in assay [1]; on PASK (Invitrogen); in assay [2]) was not above 10 µM throughout.
As for `CCc1coc(-c2cnn3c(=O)cc(-c4ccc5c(c4)OCO5)[nH]c23)n1` [Example 16, 5-(2H-1,3-benzodioxol-5-yl)-3-(4-ethyl-1,3-oxazol-2-yl)-4H,7H-pyrazolo[1,5-a]pyrimidin-7-one], the half-maximal inhibitory concentration (IC50) (at PASK; in assay [1]; at PASK (Invitrogen); in assay [2]) was not above 10 µM each time.
On to `COc1cc(-c2cc(=O)n3ncc(-c4nc(C)co4)c3[nH]2)ccc1Cl` [Example 18, 5-(4-chloro-3-methoxyphenyl)-3-(4-methyl-1,3-oxazol-2-yl)-4H,7H-pyrazolo[1,5-a]pyrimidin-7-one], for which the IC50 (on PASK; in assay [1]; on PASK (Invitrogen); in assay [2]) was not above 10 µM each time.
`COc1cc(-c2cc(=O)n3ncc(-c4ncco4)c3[nH]2)ccc1Cl` [Example 19, 5-(4-chloro-3-methoxyphenyl)-3-(1,3-oxazol-2-yl)-4H,7H-pyrazolo[1,5-a]pyrimidin-7-one]: the IC50 (on PASK; in assay [1]; at PASK (Invitrogen); in assay [2]) was not above 10 µM in each case.
In the case of `CCn1ncc2cc(-c3cc(=O)n4ncc(-c5ncco5)c4[nH]3)ccc21` [Example 20, 5-(1-Ethyl-1H-indazol-5-yl)-3-(1,3-oxazol-2-yl)-4H,7H-pyrazolo[1,5-a]pyrimidin-7-one], the IC50 (at PASK; in assay [1]; on PASK (Invitrogen); in assay [2]) was not above 10 µM in each case.
Regarding `CCOc1cc(-c2cc(=O)n3ncc(-c4nc(C)co4)c3[nH]2)ccc1Cl` [Example 21, 5-(4-chloro-3-ethoxyphenyl)-3-(4-methyl-1,3-oxazol-2-yl)-4H,7H-pyrazolo[1,5-a]pyrimidin-7-one], the IC50 – broadly, the concentration that gives 50% inhibition – at PASK is not above 10 µM; in assay [1] it was more than 10 µM; at PASK (Invitrogen), not above 10 µM; in assay [2], not above 10 µM.
For the compound `O=c1cc(-c2ccc3[nH]ncc3c2)[nH]c2c(-c3ncco3)cnn12` [Example 23, 5-(1H-indazol-5-yl)-3-(oxazol-2-yl)pyrazolo[1,5-a]pyrimidin-7(4H)-one], the IC50 (at PASK; in assay [1]; at PASK (Invitrogen); in assay [2]) was not above 10 µM throughout.
`Cc1cnc(-c2cnn3c(=O)cc(-c4ccc5[nH]ncc5c4)[nH]c23)o1` [Example 24, 5-(1H-indazol-5-yl)-3-(5-methyloxazol-2-yl)pyrazolo[1,5-a]pyrimidin-7(4H)-one]: the IC50 (at PASK; in assay [1]; at PASK (Invitrogen); in assay [2]) was not above 10 µM each time.
For the compound `COc1cc(-c2cc(=O)n3ncc(-c4ccn(C)n4)c3[nH]2)ccc1Cl` [Example 54, 5-(4-chloro-3-methoxyphenyl)-3-(1-methyl-1H-pyrazol-3-yl)pyrazolo[1,5-a]pyrimidin-7(4H)-one], the IC50 (at PASK; in assay [1]; on PASK (Invitrogen); in assay [2]) was not above 10 µM throughout.
Regarding `CCn1ncc2cc(-c3cc(=O)n4ncc(-c5cc[nH]n5)c4[nH]3)ccc21` [Example 55, 5-(1-ethyl-1H-indazol-5-yl)-3-(1H-pyrazol-3-yl)pyrazolo[1,5-a]pyrimidin-7(4H)-one], the IC50 (on PASK; in assay [1]; at PASK (Invitrogen); in assay [2]) was not above 10 µM each time.
Take `COc1cc(-c2cc(=O)n3ncc(-c4ncc(C)s4)c3[nH]2)ccc1Cl` [Example 56, 5-(4-chloro-3-methoxyphenyl)-3-(5-methylthiazol-2-yl)pyrazolo[1,5-a]pyrimidin-7(4H)-one]: the concentration for half-maximal inhibition (IC50) (at PASK; in assay [1]; at PASK (Invitrogen); in assay [2]) was not above 10 µM each time.
`O=c1cc(-c2ccc(Cl)cc2)[nH]c2c(-c3nccs3)cnn12` [Example 57, 5-(4-chlorophenyl)-3-(thiazol-2-yl)pyrazolo[1,5-a]pyrimidin-7(4H)-one]: the IC50 (at PASK; in assay [1]; on PASK (Invitrogen); in assay [2]) was not above 10 µM in each case.
As to `Cc1csc(-c2cnn3c(=O)cc(-c4ccc(Cl)cc4)[nH]c23)n1` [Example 58, 5-(4-chlorophenyl)-3-(4-methylthiazol-2-yl)pyrazolo[1,5-a]pyrimidin-7(4H)-one], the IC50 (at PASK; in assay [1]; on PASK (Invitrogen); in assay [2]) was not above 10 µM in each case.
For the compound `CCn1ncc2cc(-c3cc(=O)n4ncc(-c5noc6ccccc56)c4[nH]3)ccc21` [Example 59, 3-(benzo[d]isoxazol-3-yl)-5-(1-ethyl-1H-indazol-5-yl)pyrazolo[1,5-a]pyrimidin-7(4H)-one], the IC50 (on PASK; in assay [1]; on PASK (Invitrogen); in assay [2]) was not above 10 µM in each case.
For `CCn1ncc2cc(-c3cc(=O)n4ncc(-c5ncc(-c6ccccc6)o5)c4[nH]3)ccc21` [Example 64, 5-(1-ethyl-1H-indazol-5-yl)-3-(5-phenyloxazol-2-yl)pyrazolo[1,5-a]pyrimidin-7(4H)-one], the IC50 (at PASK; in assay [1]; on PASK (Invitrogen); in assay [2]) was not above 10 µM each time.

(Values after patent US10392389B2, “Heterocyclic compounds for the inhibition of PASK” (BioEnergenix, LLC, priority 2012, dated 2019).)
